Assay [1] deals with mouse model of Niemann-Pick Disease, Type C. The note with it: WO 2014/022841; cited from earlier work.
Assay [2] deals with sigma 2/transmembrane protein 97 ("TMEM97") receptors (Homo sapiens, UniProt Q5BJF2). The note with it: antagonist of the sigma receptor; known in the art; cited from earlier work.
Assay [3] relates to NPC1 protein. Briefly: Effect on NPC1 protein levels, Western blot densitometry in I1061T fibroblasts. It is filed as cell-based. The note with it: 0.3, 1 and 3 μM, 24 h, 48 h, 72 h, versus vehicle (FIGS. 1B-1D). On the procedure:
(§1) Healthy and I1061T fibroblasts (Coriell Institute Camden USA, cod. GM05659 (Healthy) and GM18453 (11061T)) were grown in air containing 5% CO2 in Dulbecco's Modified Eagle Medium (DMEM) medium, containing 10% v/v fetal calf serum, 2 mM L-glutamine, 0.1 mg/mL gentamicin, and 100 U/mL penicillin. Cells were passaged every 3 days.
1.5 mg of each of the compounds were weighed, dissolved in the proper solvent to reach a 3 mM concentration, kept at 4° C., and used within 15 days. The dilutions for the treatment were carried out in order to administer a 1:1000 volume. Specifically, 2 μL in 2 mL medium was administered. Ctr was made with DMSO.
Cells were washed twice in phosphate buffer saline (PBS), harvested with 1% v/v trypsin, and pelleted by centrifugation. Pellets were re-suspended in PBS containing 0.1 M sucrose, 0.05 M KCl, 0.04 M KH2PO4, 30 mM EDTA, pH 7.4, and sonicated. The protein concentration was determined by the Lowry method.
Samples were solubilized in 0.25 mM Tris-HCl, (pH 6.8) containing 20% (w/v) SDS, protease inhibitor cocktail (Merck #PIC0002), then boiled for 2 minutes. […]

Assay [4] deals with I1061T fibroblasts. Briefly: LysoTracker cytofluorimetric analysis of lysosomal size. It is filed as cell-based. The settings on record: after 48 hours, particularly at 0.3 μM (FIG. 3). The procedure:
as §1
Healthy and I1061T fibroblasts were cultured as in Example 1. To evaluate the effect of Compound No. 10 on lysosomal size, cells were treated with either 300 μM beta-cyclodextrin (CD), 2.5 μM Rim, 0.3 μM Compound No. 10 (CB), 1 μM Compound No. 10, 3 μM Compound No. 10, or vehicle control (ctr) for 72 hours. Following treatment, cytofluorimetric assays using Lysotracker™ (Life Technology #L7528) fluorescence as a tool was used and performed according to the manufacturer's instructions. LysoTracker™ provides fluorescence detection for live-cell staining of acidic environments and can be used for labeling and tracing acidic organelles such as lysosomes. Stained and unstained cells were analyzed by Cytofluorimeter CytoFLEX (Beckman Coulter). Data provided are the ratio of geometric (geo) mean of LysoTracker™ levels in stained divided by unstained samples, collected at 24 hours (FIG. 3, left), 48 hours (FIG. 3, middle), and 72 hours (FIG. 3, right).

The structures appear in SMILES notation.

sigma 2/transmembrane protein 97 ("TMEM97") receptors, sequence (Q5BJF2 whole entry, species assumed): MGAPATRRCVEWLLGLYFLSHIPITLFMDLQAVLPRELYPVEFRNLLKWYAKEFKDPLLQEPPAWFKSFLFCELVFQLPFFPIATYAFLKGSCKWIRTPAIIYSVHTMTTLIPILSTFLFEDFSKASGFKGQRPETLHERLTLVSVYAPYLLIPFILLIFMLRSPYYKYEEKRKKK

As to `OC[C@H]1O[C@@H]2O[C@H]3[C@H](O)[C@@H](O)[C@@H](O[C@H]4[C@H](O)[C@@H](O)[C@@H](O[C@H]5[C@H](O)[C@@H](O)[C@@H](O[C@H]6[C@H](O)[C@@H](O)[C@@H](O[C@H]7[C@H](O)[C@@H](O)[C@@H](O[C@H]8[C@H](O)[C@@H](O)[C@@H](O[C@H]1[C@H](O)[C@H]2O)O[C@@H]8CO)O[C@@H]7CO)O[C@@H]6CO)O[C@@H]5CO)O[C@@H]4CO)O[C@@H]3CO` [beta-cyclodextrin], in assay [1], the cholesterol accumulation entry is on record as “reduced” and the neuronal cell loss result is “reduced”.
Usually IC50 stands for the midpoint of a concentration-inhibition curve. Consider `C[C@@H]1CN(CCCn2c3ccccc3c3ccccc32)C[C@H](C)N1` [Rimcazole, 9-[3-(3,5-cis-dimethylpiperazino)propyl]-carbazole], for which, in assay [2], the IC50 was 386 nM.
As for `CC1(C)CCN(C2CCCC2)Cc2cc(-c3ccc(C(F)(F)F)cc3)ccc21` [Compound No. 10, 2-cyclopentyl-5,5-dimethyl-8-(4-(trifluoromethyl)phenyl)-2,3,4,5-tetrahydro-1H-benzo[c]azepine], the “effect on NPC1 protein expression” value in assay [3] is reported as “did not have a statistically significant effect”. Also, the “fluorescence of the lysosomes (Lysotracker geo mean ratio), representing lysosomal size” value in assay [4] is “increase”.
